This is an account of results in patent US9725459B2, “3-oxo-tetrahydro-furo[3,2-B]pyrrol-4(5H)-yl) derivatives I” (GRÜNENTHAL GMBH, priority 2014, dated 2017).

Holding throughout (assay type): biochemical
Experiment [1] has as its target human cathepsin S (CatS) (Homo sapiens (Human), UniProt P25774). The experiment can be described thus: CatS functional enzyme assay. Conditions: for Selectivity Ki(hCatS)/Ki(hCatK): ratio Ki(hCatS)/Ki(hCatK); for Ki: read-out: hCatS, Ki. The essentials:
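Recombinant human enzymes were incubated 10 min at RT with AMC substrate: CatS 0.0007 mU/well with Z-VVR-AMC 5 µM; CatK 0.00175 mU/well with Z-FR-AMC 40 µM; CatL 0.000874 mU/well with Z-VVR-AMC 40 µM. Fluorescence gave IC50, converted to Ki by Cheng-Prusoff.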

The target of experiment [2] is human cathepsin K (CatK) (Homo sapiens (Human), UniProt P43235). In words: CatK functional enzyme assay. The following applies: for Ki: recombinant human CatK, substrate Z-FR-AMC 40 μM, pH 5.5, Ki by Cheng Prusoff equation, read-out: hCatK, Ki. The essentials:
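Recombinant human enzymes in 50 mM NaOAc, 10 mM EDTA, 1 mM DTT, 0.01% Triton X-100, pH 5.5, 10 min at RT. CatK: 0.00175 mU/well with 40 μM Z-FR-AMC; CatL: 0.000874 mU/well with 40 μM Z-VVR-AMC. AMC fluorescence read; IC50 converted to Ki via Cheng–Prusoff.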

The target in experiment [3] is human cathepsin L (CatL) (Homo sapiens (Human), UniProt P07711). In words: CatL functional enzyme assay. Conditions: read-out: hCatL, inhibition [%] at 31.6 μM.
Sequence of human cathepsin L (CatL) (P07711 114-333): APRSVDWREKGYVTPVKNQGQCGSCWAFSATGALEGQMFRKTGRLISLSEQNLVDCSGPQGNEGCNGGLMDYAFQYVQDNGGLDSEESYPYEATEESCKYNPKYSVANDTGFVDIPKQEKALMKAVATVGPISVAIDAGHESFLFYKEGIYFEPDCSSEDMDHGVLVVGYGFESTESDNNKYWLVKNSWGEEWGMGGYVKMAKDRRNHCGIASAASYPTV
Setting [4] is: recombinant human CatS, substrate Z-VVR-AMC 5 μM, pH 6.5, Ki by Cheng Prusoff equation.

Where two headings read alike, the source gives them in different places.

For orientation: inhibition means the percentage by which the read-out fell short of the control. One may read the Ki as the dissociation constant of the complex between target and ligand, obtained from inhibition or displacement.

Sequence of human cathepsin K (CatK) (P43235 115-329): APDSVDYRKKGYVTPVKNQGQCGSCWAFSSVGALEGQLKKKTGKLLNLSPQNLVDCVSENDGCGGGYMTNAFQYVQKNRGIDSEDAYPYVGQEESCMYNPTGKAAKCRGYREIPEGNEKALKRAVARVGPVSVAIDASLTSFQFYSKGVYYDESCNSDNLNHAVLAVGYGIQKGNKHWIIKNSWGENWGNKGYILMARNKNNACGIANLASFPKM
Sequence of human cathepsin S (CatS) (P25774 115-331): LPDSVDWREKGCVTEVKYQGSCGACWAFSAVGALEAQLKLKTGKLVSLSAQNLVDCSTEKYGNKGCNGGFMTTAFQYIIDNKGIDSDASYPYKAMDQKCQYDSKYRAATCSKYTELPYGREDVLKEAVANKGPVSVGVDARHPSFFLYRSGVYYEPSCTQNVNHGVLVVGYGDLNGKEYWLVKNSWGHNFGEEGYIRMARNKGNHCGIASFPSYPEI

Regarding `O=C(N[C@H](C(=O)N1C[C@H](Cl)[C@H]2OCC(=O)[C@H]21)C1CCCCC1)c1sc(-c2cccnc2)nc1C(F)(F)F` [Example 23, N-((S)-2-((3aS,6S,6aS)-6-chloro-3-oxotetrahydro-2H-furo[3,2-b]pyrrol-4(5H)-yl)-1-cyclohexyl-2-oxoethyl)-2-(pyridin-3-yl)-4-(trifluoromethyl)thiazole-5-carboxamide], the inhibition at 10 µM came out at 60% in experiment [1] (read-out: hCatS, inhibition [%] at 10 μM) and 52% in experiment [2] (read-out: hCatK, inhibition [%] at 10 μM). Further, the inhibition at 31.6 µM in experiment [3] was found to be 0%.
As for `CCc1cc(-c2ccc(C(=O)N[C@H](C(=O)N3C[C@H](Cl)[C@H]4OCC(=O)[C@H]43)C3CCCCC3)s2)cnn1` [Example 85, N-((S)-2-((3aS,6S,6aS)-6-chloro-3-oxotetrahydro-2H-furo[3,2-b]pyrrol-4(5H)-yl)-1-cyclohexyl-2-oxoethyl)-5-(6-ethylpyridazin-4-yl)thiophene-2-carboxamide], the “Selectivity Ki(hCatS)/Ki(hCatK)” value in experiment [1] was found to be 1.1. Also, the Ki amounted to 6 nM in experiment [1] (setting [4]) and 5 nM in experiment [2]. In addition, the inhibition at 31.6 µM in experiment [3] turned out to be 14%.
The matching figures for `Cc1cc(-c2cnc(C(=O)N[C@H](C(=O)N3C[C@H](Cl)[C@H]4OCC(=O)[C@H]43)C3CCCCC3)s2)ccn1` [Example 51, N-((S)-2-((3aS,6S,6aS)-6-chloro-3-oxotetrahydro-2H-furo[3,2-b]pyrrol-4(5H)-yl)-1-cyclohexyl-2-oxoethyl)-5-(2-methylpyridin-4-yl)thiazole-2-carboxamide]: 24.7, 173 nM, 7 nM and 6%.
For the molecule `Cc1ccc(-c2cnc(C(=O)N[C@H](C(=O)N3C[C@H](Cl)[C@H]4OCC(=O)[C@H]43)C3CCCCC3)s2)cn1` [Example 42, N-((S)-2-((3aS,6S,6aS)-6-chloro-3-oxotetrahydro-2H-furo[3,2-b]pyrrol-4(5H)-yl)-1-cyclohexyl-2-oxoethyl)-5-(6-methylpyridin-3-yl)thiazole-2-carboxamide], the “Selectivity Ki(hCatS)/Ki(hCatK)” value in experiment [1] is 25.4. Besides, the Ki in experiment [1] (setting [4]) is 356 nM; in experiment [2], 14 nM. Moreover, the inhibition at 31.6 µM in experiment [3] came to 18%.
On to `O=C(N[C@H](C(=O)N1C[C@H](Cl)[C@H]2OCC(=O)[C@H]21)C1CCCCC1)c1ccc(-c2ccncc2F)s1` [Example 31, N-((S)-2-((3aS,6S,6aS)-6-chloro-3-oxotetrahydro-2H-furo[3,2-b]pyrrol-4(5H)-yl)-1-cyclohexyl-2-oxoethyl)-5-(3-fluoropyridin-4-yl)thiophene-2-carboxamide], for which the “Selectivity Ki(hCatS)/Ki(hCatK)” value in experiment [1] is 88.0. Also, the Ki stood at 440 nM in experiment [1] (setting [4]) and 5 nM in experiment [2]. In addition, in experiment [3], the inhibition at 31.6 µM came out at 14%.
On to `O=C(N[C@H](C(=O)N1C[C@H](Cl)[C@H]2OCC(=O)[C@H]21)C1CCCCC1)c1ccc(-c2cncc(F)c2)s1` [Example 16, N-((S)-2-((3aS,6S,6aS)-6-chloro-3-oxotetrahydro-2H-furo[3,2-b]pyrrol-4(5H)-yl)-1-cyclohexyl-2-oxoethyl)-5-(5-fluoropyridin-3-yl)thiophene-2-carboxamide], for which, in experiment [1], the “Selectivity Ki(hCatS)/Ki(hCatK)” value is recorded as 19.9. Further, the Ki is 259 nM in experiment [1] (setting [4]) and 13 nM in experiment [2]. For the same molecule, the inhibition at 31.6 µM in experiment [3] was 15%.
As to `COc1cc(-c2ccc(C(=O)N[C@H](C(=O)N3C[C@H](Cl)[C@H]4OCC(=O)[C@H]43)C3CCCCC3)s2)ccn1` [Example 56, N-((S)-2-((3aS,6S,6aS)-6-chloro-3-oxotetrahydro-2H-furo[3,2-b]pyrrol-4(5H)-yl)-1-cyclohexyl-2-oxoethyl)-5-(2-methoxypyridin-4-yl)thiophene-2-carboxamide], in experiment [1], the “Selectivity Ki(hCatS)/Ki(hCatK)” value is recorded as 16.6. For the same molecule, the Ki was determined as 92 nM in experiment [1] (setting [4]) and 6 nM in experiment [2]. In addition, in experiment [3], the inhibition at 31.6 µM was found to be 20%.
Take `O=C(N[C@H](C(=O)N1C[C@H](Cl)[C@H]2OCC(=O)[C@H]21)C1CCCCC1)c1ncc(-c2ccnnc2)s1` [Example 18, N-((S)-2-((3aS,6S,6aS)-6-chloro-3-oxotetrahydro-2H-furo[3,2-b]pyrrol-4(5H)-yl)-1-cyclohexyl-2-oxoethyl)-5-(pyridazin-4-yl)thiazole-2-carboxamide]: the “Selectivity Ki(hCatS)/Ki(hCatK)” value in experiment [1] is listed as 1.2. The results for the Ki in experiment [1] (setting [4]) and in experiment [2] were 37 nM and 31 nM, respectively. In addition, the inhibition at 31.6 µM in experiment [3] turned out to be 15%.
`Cc1ccnnc1-c1ccc(C(=O)N[C@H](C(=O)N2C[C@H](Cl)[C@H]3OCC(=O)[C@H]32)C2CCCCC2)s1` [Example 84, N-((S)-2-((3aS,6S,6aS)-6-chloro-3-oxotetrahydro-2H-furo[3,2-b]pyrrol-4(5H)-yl)-1-cyclohexyl-2-oxoethyl)-5-(4-methylpyridazin-3-yl)thiophene-2-carboxamide]: the “Selectivity Ki(hCatS)/Ki(hCatK)” value in experiment [1] came out at 21.8. Further, the Ki in experiment [1] (setting [4]) came out at 358 nM; in experiment [2], 16 nM. In experiment [3], the inhibition at 31.6 µM turned out to be 6%.
Consider `O=C(N[C@H](C(=O)N1C[C@H](Cl)[C@H]2OCC(=O)[C@H]21)C1CCCCC1)c1ncc(-c2cnc(C(F)(F)F)nc2)s1` [Example 67, N-((S)-2-((3aS,6S,6aS)-6-chloro-3-oxotetrahydro-2H-furo[3,2-b]pyrrol-4(5H)-yl)-1-cyclohexyl-2-oxoethyl)-5-(2-(trifluoromethyl)pyrimidin-5-yl)thiazole-2-carboxamide], for which the “Selectivity Ki(hCatS)/Ki(hCatK)” value in experiment [1] was 4.7. Moreover, the Ki was 198 nM in experiment [1] (setting [4]) and 42 nM in experiment [2]. Moreover, the inhibition at 31.6 µM in experiment [3] amounted to 8%.
As for `O=C(N[C@H](C(=O)N1C[C@H](Cl)[C@H]2OCC(=O)[C@H]21)C1CCCCC1)c1ncc(-c2ccncn2)s1` [Example 26, N-((S)-2-((3aS,6S,6aS)-6-chloro-3-oxotetrahydro-2H-furo[3,2-b]pyrrol-4(5H)-yl)-1-cyclohexyl-2-oxoethyl)-5-(pyrimidin-4-yl)thiazole-2-carboxamide], in experiment [1], the “Selectivity Ki(hCatS)/Ki(hCatK)” value was found to be 4.6. The Ki in experiment [1] (setting [4]) came out at 220 nM; in experiment [2], 48 nM. Also, the inhibition at 31.6 µM in experiment [3] is 32%.
As for `O=C(N[C@H](C(=O)N1C[C@H](Cl)[C@H]2OCC(=O)[C@H]21)C1CCCCC1)c1ccc(-c2ccncc2)s1` [Example 3, N-((S)-2-((3aS,6S,6aS)-6-chloro-3-oxotetrahydro-2H-furo[3,2-b]pyrrol-4(5H)-yl)-1-cyclohexyl-2-oxoethyl)-5-(pyridin-4-yl)thiophene-2-carboxamide], in experiment [1], the “Selectivity Ki(hCatS)/Ki(hCatK)” value came out at 34.3 and the Ki was determined as 103 nM. Moreover, the Ki in experiment [2] is 3 nM. Besides, in experiment [3], the inhibition at 31.6 µM turned out to be 5%.
